Experimental data taken from ChEMBL document CHEMBL1201862, “PubChem BioAssay data set” (2004).
The source made the active and inactive calls.

Columns and labels:
[1] = Luminescence Cell-Based Dose Response HTS to Identify Activators of Luciferase Translation or Activity in H4-C Neuroglioblastoma Cells. [Related pubchem assays: 1829 (Project Summary), 1814 (Primary HTS)]; type: functional
[2] = alpha-synuclein stem-loop luciferase translation blockers – H4 neuroglioma cells, luminescence, confirmation (AID 1988); type: functional, cell-based
[3] = luciferase reporter signal reduction – luminescence, H4-C neuroglioblastoma cells, dose response (AID 2458); type: functional, cell-based;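 also: H4 neuroglioblastoma cells stably carrying a luciferase reporter gene fusion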
[4] = Luminescence Cell-Based Dose Response HTS to Identify Inhibitors of 5'UTR Stem-Loop Driven Prion Protein mRNA Translation in H4 Neuroglioblastoma Cells. [Related pubchem assays: 1827 (Project Summary), 1813 (Primary HTS)]; type: functional
[5] = Luminescence Cell-Based Dose HTS Response to Identify Inhibitors of 5'UTR Stem-Loop Driven Prion Protein mRNA Translation in H4-C Neuroglioblastoma Cells. [Related pubchem assays (depositor defined):AID1814, AID1827]; type: functional
[6] = Luminescence Cell-Based Dose Confirmation HTS to Identify Inhibitors of 5'UTR Stem-Loop Driven Alpha-Synuclein mRNA Translation in H4 Neuroglioblastoma Cells. [Related pubchem assays: 1827 (Project Summary), 1813 (Primary HTS)]; type: functional
[7] = alpha-synuclein stem-loop translation blockers – luminescence, H4 neuroglioblastoma cells, dose confirmation, confirmation (AID 2454); type: functional, cell-based;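 also: H4 neuroglioblastoma cells carrying an alpha-synuclein 5'UTR luciferase reporter; potency for inhibition of the luciferase signal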
[8] = luciferase reporter signal suppression in cells – H4 neuroglioma cells, luminescence, dose response (AID 1990); type: functional, cell-based
[9] = Luminescence Cell-Based Dose Response HTS to Identify Activators of 5'UTR Stem-Loop Driven Prion Protein mRNA Translation in H4-C Neuroglioblastoma Cells. [Related pubchem assays: 1829 (Project Summary), 1814 (Primary HTS)]; type: functional
cells = type: functional, cell-based
[10] = Luminescence Cell-Based Dose Response HTS to Identify Inhibitors of Luciferase Translation or Activity in H4-C Neuroglioblastoma Cells. [Related pubchem assays: 1813 (Primary HTS), 1827 (Project Summary)]; type: functional
[11] = Luminescence Cell-Based Dose Retest to Confirm Activators of 5'UTR Stem-Loop Driven Alpha-Synuclein mRNA Translation in H4 Neuroglioblastoma Cells. [Related pubchem assays (depositor defined):AID1813, AID1829]; type: functional
J774.A1 = assay: Confirmation of image-based Screening Assay for Inhibitors of Phagocytosis. [Related pubchem assays (depositor defined):AID1029, AID1643]; type: functional, cell-based; settings: Mus musculus
[12] = target: T1, Kappa-type opioid receptor (Homo sapiens, UniProt P41145); assay: SAR analysis of small molecule agonists of the kappa opioid receptor via a luminescent beta-arrestin assay - Set 2. [Related pubchem assays (depositor defined):AID1777, AID1785, AID1786, AID1966, AID2133, AID2136, AID2284, AID449737]; type: functional
[13] = target: Delta-type opioid receptor (Homo sapiens, UniProt P41143); assay: SAR Analysis of Antagonists of the DOR Receptor using an Image-Based Assay - Set 2. [Related pubchem assays (depositor defined):AID1777, AID1785, AID1786, AID1966, AID2133, AID2136, AID2284, AID2285, AID2357]; type: functional
[14] = target: T1, Kappa-type opioid receptor; assay: SAR analysis of Antagonists of the Kappa Opioid Receptor (KOR) using an Image-Based Assay - Set 2. [Related pubchem assays (depositor defined):AID1777, AID1785, AID1786, AID1966, AID2133, AID2136, AID2284, AID2285, AID2348]; type: functional
[15] = target: Voltage-dependent T-type calcium channel subunit alpha-1H (Homo sapiens, UniProt O95180); assay: human CACNA1H calcium influx blockade – cell-based, synthetic library set 2, HEK293 HH8, Fluo-4, SAR follow-up (AID 493023); type: functional
[16] = target: T2, Dual specificity protein phosphatase 3 (Homo sapiens, UniProt P51452); assay: SAR VHR1 Fluorescent Assay for In Vitro dose response studies. [Related pubchem assays (depositor defined):AID1654, AID1661, AID1878, AID1992, AID2004, AID2070, AID2085]; type: functional
[17] = target: T3, Dual specificity protein phosphatase 6 (Rattus norvegicus, UniProt Q64346); type: functional;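 also: confirmatory in vitro dose-response testing of MKP-3 inhibition; recombinant His-tagged MKP-3 made in E. coli BL21 with OMFP substrate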
T3 sequence (Q64346 whole entry): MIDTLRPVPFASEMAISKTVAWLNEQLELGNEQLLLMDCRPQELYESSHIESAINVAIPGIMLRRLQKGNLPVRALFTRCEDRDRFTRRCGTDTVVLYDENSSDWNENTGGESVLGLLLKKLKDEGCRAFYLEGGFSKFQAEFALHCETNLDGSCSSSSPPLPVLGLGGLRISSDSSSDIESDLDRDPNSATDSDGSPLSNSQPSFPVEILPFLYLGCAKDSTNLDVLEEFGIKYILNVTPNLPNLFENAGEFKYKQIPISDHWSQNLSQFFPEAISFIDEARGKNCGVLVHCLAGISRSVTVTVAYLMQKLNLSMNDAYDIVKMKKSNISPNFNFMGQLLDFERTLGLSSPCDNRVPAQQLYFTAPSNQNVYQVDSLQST

[18] = target: T2, Dual specificity protein phosphatase 3; assay: SAR VHR1 Fluorescent Assay for In Vitro dose response studies Set 2. [Related pubchem assays (depositor defined):AID1654, AID1661, AID1878]; type: functional
[19] = target: T2, Dual specificity protein phosphatase 3; assay: SAR VHR1 absorbance Assay for In Vitro dose response studies. [Related pubchem assays (depositor defined):AID1654, AID1661, AID1878, AID1992, AID2004]
[20] = target: T4, Tyrosine-protein phosphatase non-receptor type 7 (Homo sapiens, UniProt P35236); assay: redox-active compounds inhibiting HePTP phosphatase – biochemical, fluorescence, mechanism study (AID 2068); type: functional
T4 sequence (P35236 whole entry): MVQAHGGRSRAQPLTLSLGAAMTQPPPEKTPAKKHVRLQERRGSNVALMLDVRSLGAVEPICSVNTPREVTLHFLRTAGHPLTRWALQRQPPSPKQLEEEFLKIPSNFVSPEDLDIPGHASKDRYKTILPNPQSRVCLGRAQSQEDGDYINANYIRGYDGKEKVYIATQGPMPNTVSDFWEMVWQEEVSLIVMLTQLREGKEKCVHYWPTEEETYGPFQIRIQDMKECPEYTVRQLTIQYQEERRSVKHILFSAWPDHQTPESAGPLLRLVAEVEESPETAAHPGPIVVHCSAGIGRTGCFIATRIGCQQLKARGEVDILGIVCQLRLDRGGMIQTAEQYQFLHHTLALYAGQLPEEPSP

T2 sequence (P51452 whole entry): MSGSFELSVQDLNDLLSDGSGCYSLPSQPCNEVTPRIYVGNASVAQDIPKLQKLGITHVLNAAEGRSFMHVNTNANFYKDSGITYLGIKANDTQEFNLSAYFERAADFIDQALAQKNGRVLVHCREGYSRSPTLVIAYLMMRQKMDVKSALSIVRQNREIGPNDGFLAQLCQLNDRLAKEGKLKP
T1 sequence (P41145 whole entry): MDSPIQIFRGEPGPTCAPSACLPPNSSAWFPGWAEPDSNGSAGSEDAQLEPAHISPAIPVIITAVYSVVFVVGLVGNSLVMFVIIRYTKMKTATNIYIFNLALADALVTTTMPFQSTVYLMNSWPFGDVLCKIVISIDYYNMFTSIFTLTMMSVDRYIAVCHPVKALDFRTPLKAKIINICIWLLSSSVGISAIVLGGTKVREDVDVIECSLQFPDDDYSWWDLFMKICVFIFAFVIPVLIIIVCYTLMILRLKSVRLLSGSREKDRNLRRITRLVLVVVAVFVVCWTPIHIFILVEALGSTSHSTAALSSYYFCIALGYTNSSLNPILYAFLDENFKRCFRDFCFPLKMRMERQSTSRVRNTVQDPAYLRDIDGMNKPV
Delta-type opioid receptor, sequence (P41143 whole entry): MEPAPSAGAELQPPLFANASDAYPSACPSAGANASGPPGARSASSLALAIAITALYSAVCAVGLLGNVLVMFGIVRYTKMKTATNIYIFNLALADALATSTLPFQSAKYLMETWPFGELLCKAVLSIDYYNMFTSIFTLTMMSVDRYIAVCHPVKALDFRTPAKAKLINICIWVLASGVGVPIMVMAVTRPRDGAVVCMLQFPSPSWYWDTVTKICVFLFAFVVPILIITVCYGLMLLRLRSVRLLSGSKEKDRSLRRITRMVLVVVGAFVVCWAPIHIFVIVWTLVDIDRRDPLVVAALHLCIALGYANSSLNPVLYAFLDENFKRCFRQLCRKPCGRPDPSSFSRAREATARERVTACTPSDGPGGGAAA
Voltage-dependent T-type calcium channel subunit alpha-1H, sequence (O95180 whole entry): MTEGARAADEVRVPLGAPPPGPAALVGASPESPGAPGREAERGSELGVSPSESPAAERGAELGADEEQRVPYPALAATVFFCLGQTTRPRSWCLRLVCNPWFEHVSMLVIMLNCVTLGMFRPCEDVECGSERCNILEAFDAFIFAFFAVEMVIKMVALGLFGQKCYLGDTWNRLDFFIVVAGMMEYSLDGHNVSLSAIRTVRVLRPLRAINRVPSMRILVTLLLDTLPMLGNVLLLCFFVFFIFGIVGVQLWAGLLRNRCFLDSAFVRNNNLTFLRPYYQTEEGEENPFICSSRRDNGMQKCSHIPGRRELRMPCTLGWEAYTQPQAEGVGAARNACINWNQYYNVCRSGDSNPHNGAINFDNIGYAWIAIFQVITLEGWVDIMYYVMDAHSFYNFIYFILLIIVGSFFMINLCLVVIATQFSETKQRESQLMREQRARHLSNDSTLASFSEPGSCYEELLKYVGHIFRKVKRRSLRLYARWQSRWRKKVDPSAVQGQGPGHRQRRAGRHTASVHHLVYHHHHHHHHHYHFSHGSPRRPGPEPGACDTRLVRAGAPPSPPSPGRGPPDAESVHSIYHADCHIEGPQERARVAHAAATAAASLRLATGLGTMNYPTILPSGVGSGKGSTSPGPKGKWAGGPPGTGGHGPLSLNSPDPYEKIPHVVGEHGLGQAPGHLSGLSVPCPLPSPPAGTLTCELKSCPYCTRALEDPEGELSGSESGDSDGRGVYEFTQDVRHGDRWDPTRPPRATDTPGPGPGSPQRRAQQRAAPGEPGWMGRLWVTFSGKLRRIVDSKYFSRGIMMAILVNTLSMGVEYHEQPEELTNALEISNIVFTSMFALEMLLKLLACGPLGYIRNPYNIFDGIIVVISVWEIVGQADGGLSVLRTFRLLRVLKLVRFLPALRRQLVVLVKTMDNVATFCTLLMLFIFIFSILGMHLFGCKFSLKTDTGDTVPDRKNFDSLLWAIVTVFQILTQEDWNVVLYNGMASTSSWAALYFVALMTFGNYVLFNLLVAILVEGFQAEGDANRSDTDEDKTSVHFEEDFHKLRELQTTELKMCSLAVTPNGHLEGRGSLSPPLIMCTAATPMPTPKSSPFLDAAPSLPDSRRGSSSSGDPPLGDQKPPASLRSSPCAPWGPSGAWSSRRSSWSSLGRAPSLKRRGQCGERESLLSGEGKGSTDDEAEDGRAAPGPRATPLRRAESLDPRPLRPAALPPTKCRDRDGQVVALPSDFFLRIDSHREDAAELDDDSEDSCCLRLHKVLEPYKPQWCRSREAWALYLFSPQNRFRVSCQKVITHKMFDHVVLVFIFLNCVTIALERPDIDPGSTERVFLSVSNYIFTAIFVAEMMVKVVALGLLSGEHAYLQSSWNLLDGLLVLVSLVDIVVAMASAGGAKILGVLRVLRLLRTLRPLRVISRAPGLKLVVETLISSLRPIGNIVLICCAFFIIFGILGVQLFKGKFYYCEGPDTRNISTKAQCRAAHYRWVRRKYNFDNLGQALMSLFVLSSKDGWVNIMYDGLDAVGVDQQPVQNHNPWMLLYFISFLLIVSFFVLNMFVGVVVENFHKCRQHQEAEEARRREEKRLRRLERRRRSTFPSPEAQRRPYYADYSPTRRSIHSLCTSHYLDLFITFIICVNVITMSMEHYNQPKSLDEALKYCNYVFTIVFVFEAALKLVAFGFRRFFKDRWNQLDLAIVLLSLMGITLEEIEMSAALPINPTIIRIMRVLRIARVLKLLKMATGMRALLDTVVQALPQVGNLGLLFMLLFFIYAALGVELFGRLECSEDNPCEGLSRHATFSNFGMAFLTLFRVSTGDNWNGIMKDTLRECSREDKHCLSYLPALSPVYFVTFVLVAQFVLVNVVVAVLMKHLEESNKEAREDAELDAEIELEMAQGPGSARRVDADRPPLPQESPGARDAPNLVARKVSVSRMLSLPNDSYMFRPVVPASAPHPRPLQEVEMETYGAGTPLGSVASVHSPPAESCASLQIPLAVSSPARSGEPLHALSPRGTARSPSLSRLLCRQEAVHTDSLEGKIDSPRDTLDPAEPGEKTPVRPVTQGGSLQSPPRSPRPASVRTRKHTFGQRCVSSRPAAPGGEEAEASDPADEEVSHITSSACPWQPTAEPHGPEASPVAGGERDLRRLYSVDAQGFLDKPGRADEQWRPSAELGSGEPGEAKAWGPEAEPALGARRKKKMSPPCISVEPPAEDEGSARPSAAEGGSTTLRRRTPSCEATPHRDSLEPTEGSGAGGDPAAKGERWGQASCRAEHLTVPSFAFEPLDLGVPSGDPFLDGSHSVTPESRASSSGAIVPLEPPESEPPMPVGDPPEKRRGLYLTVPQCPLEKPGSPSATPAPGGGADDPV

Question: Which results are given for `N#CC1=C(N)Oc2c(ccc3ccccc23)C1c1cccs1` (configuration not stated)?
Answer: EC50 [1]: 0.246 µM (inconclusive); EC50 [2]: < 0.1 µM (active); EC50 [3]: 0.474 µM (active); EC50 [4]: 9.47 µM (active); EC50 [5]: 0.162 µM (active); EC50 [6]: 9.28 µM (active); EC50 [7]: 0.739 µM (active); EC50 [8]: 5.47 µM (inconclusive); EC50 [9]: 0.162 µM (inconclusive); EC50 (cells): 0.885 µM (active); EC50 [10]: 0.246 µM (active); EC50 [11]: 9.28 µM (inconclusive); IC50 (J774.A1): 1.86 µM (active)

Question: Which results are given for `CC[C@](C)(C(=O)NC1CCCCC1)N(Cc1ccco1)C(=O)c1ccccn1`?
Answer: EC50 [12]: 0.151 µM (active); IC50 [13]: > 32 µM (inactive); IC50 [14]: > 32 µM (inactive)

Question: For `CC(C)(C)CCN1CCC[C@@H](NC(=O)COc2ccc(F)cc2Cl)C1`, which EC50 [15] is on record?
Answer: The EC50 was 10 µM (active).

Question: What does the source list for `NS(=O)(=O)c1cc(C(=O)NC2CCCc3ccccc32)ccc1Cl` (configuration not stated)?
Answer: IC50 [16]: > 100 µM (inactive); IC50 [17]: > 100 µM (inactive); IC50 [18]: > 100 µM (inactive); IC50 [19]: > 100 µM (inactive); IC50 [20]: > 100 µM (inactive)
